Legend:
Assay in all cases: relative viability (nuclei count vs DMSO), 5 days (fraction); higher = more cells survive
Pictilisib + Phenformin = compound: CS(=O)(=O)N1CCN(Cc2cc3nc(-c4cccc5[nH]ncc45)nc(N4CCOCC4)c3s2)CC1 [Pictilisib] + N=C(N)NC(=N)NCCc1ccccc1 [Phenformin] (partner 250 µM)
Procedure, shortened: (§1)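 Lung cancer cell lines in 1536-well plates were dosed by pin tool the day after seeding, either with one drug alone or with a fixed anchor-drug dose plus five library-drug doses (not always all listed) in √10 steps. After 5 days, cells were fixed and their nuclei stained in one step (final 0.05% Triton X-100, 1% formaldehyde, 1 ug/ml Hoechst), then counted on 4× images. Relative viability is the nuclei count in treated wells divided by that in vehicle wells. Values are medians of duplicate plates.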

Pictilisib + Vorinostat = compound: CS(=O)(=O)N1CCN(Cc2cc3nc(-c4cccc5[nH]ncc45)nc(N4CCOCC4)c3s2)CC1 [Pictilisib] + O=C(CCCCCCC(=O)Nc1ccccc1)NO [Vorinostat] (partner 1 µM)
Procedure, shortened: as §1

MK-2206 + Palbociclib = compound: NC1(c2ccc(-c3nc4ccn5c(=O)[nH]nc5c4cc3-c3ccccc3)cc2)CCC1 [MK-2206] + CC(=O)c1c(C)c2cnc(Nc3ccc(N4CCNCC4)cn3)nc2n(C2CCCC2)c1=O [Palbociclib] (partner 0.5 µM)
Procedure, shortened: as §1

MK-2206 + Pictilisib = compound: NC1(c2ccc(-c3nc4ccn5c(=O)[nH]nc5c4cc3-c3ccccc3)cc2)CCC1 [MK-2206] + CS(=O)(=O)N1CCN(Cc2cc3nc(-c4cccc5[nH]ncc45)nc(N4CCOCC4)c3s2)CC1 [Pictilisib] (partner 1 µM)
Procedure, shortened: as §1

MK-2206 + Olaparib = compound: NC1(c2ccc(-c3nc4ccn5c(=O)[nH]nc5c4cc3-c3ccccc3)cc2)CCC1 [MK-2206] + O=C(c1cc(Cc2n[nH]c(=O)c3ccccc23)ccc1F)N1CCN(C(=O)C2CC2)CC1 [Olaparib] (partner 8 µM)
Procedure, shortened: as §1

| Cell Line | relative viability (Pictilisib + Phenformin; first compound 0.02 µM) | relative viability (Pictilisib + Phenformin; first compound 0.06325 µM) | relative viability (Pictilisib + Phenformin; first compound 0.6325 µM) | relative viability (Pictilisib + Phenformin; first compound 2 µM) | relative viability (Pictilisib + Vorinostat; first compound 0.02 µM) | relative viability (Pictilisib + Vorinostat; first compound 0.06325 µM) | relative viability (Pictilisib + Vorinostat; first compound 0.6325 µM) | relative viability (Pictilisib + Vorinostat; first compound 2 µM) | relative viability (MK-2206 + Palbociclib; first compound 0.01 µM) | relative viability (MK-2206 + Palbociclib; first compound 0.03162 µM) | relative viability (MK-2206 + Palbociclib; first compound 0.3162 µM) | relative viability (MK-2206 + Palbociclib; first compound 1 µM) | relative viability (MK-2206 + Pictilisib; first compound 0.01 µM) | relative viability (MK-2206 + Pictilisib; first compound 0.03162 µM) | relative viability (MK-2206 + Pictilisib; first compound 0.3162 µM) | relative viability (MK-2206 + Pictilisib; first compound 1 µM) | relative viability (MK-2206 + Olaparib; first compound 0.01 µM) | relative viability (MK-2206 + Olaparib; first compound 0.03162 µM) | relative viability (MK-2206 + Olaparib; first compound 0.3162 µM) | relative viability (MK-2206 + Olaparib; first compound 1 µM) |
| --- | --- | --- | --- | --- | --- | --- | --- | --- | --- | --- | --- | --- | --- | --- | --- | --- | --- | --- | --- | --- |
| NCI-H2347 | 0.451 | 0.461 | 0.325 | 0.207 | 0.669 | 0.607 | 0.416 | 0.321 | 0.418 | 0.415 | 0.39 | 0.3 | 0.384 | 0.67 | 0.634 | 0.652 | 0.618 | 0.541 | 0.58 | 0.503 |
| LCLC-103H | 0.378 | 0.312 | 0.294 | 0.214 | 0.84 | 0.737 | 0.634 | 0.469 | 0.496 | 0.499 | 0.461 | 0.462 | 0.642 | 0.688 | 0.54 | 0.701 | 0.548 | 0.768 | 0.777 | 0.731 |
| NCI-H650 | 0.468 | 0.457 | 0.357 | 0.394 | 0.533 | 0.427 | 0.378 | 0.164 | 0.292 | 0.328 | 0.311 | 0.309 | 0.804 | 0.901 | 0.87 | 0.81 | 0.4 | 0.362 | 0.383 | 0.391 |
| NCI-H1975 | 0.431 | 0.387 | 0.25 | 0.177 | 0.708 | 0.665 | 0.386 | 0.204 | 0.604 | 0.529 | 0.49 | 0.168 | 0.267 | 0.259 | 0.24 | 0.232 | 0.705 | 0.782 | 0.764 | 0.663 |
| NCI-H2126 | 0.49 | 0.501 | 0.38 | 0.31 | 0.794 | 0.732 | 0.504 | 0.317 | 0.372 | 0.358 | 0.357 | 0.335 | 0.522 | 0.47 | 0.491 | 0.468 | 0.932 | 1.01 | 0.87 | 0.925 |
| NCI-H2087 | 0.483 | 0.439 | 0.468 | 0.28 | 0.61 | 1.06 | 0.919 | 0.539 | 0.225 | 0.226 | 0.184 | 0.217 | 0.817 | 0.933 | 0.833 | 0.671 | 0.641 | 0.552 | 0.592 | 0.51 |

From the supplement of paper PMC10307832
